Measured values from US20240166622A1, “FLUORINATED QUINOLINE, QUINOXALINE AND BENZO[B][1,4]OXAZINE DERIVATIVES AS DIHYDROOROTATE DEHYDROGENASE (DHODH) INHIBITORS FOR THE TREATMENT OF CANCER, AUTOIMMUNE AND INFLAMMATORY DISEASES” (Janssen Biotech, Inc., priority 2019, published 2024).

Experiments:
MOLM-13 cells = experiment: MOLM-13 Cellular Assay; format: cell-based; settings: Homo sapiens, 72 hours, cell viability by CellTiter-Glo
Procedure: MOLM-13 cells were obtained from DSMZ and were maintained in RPMI 1640+Glutamax+25 mM HEPES (Invitrogen, catalog number 72400) supplemented with 10% heat inactivated fetal bovine serum (FBS; Invitrogen, catalog number 16140). The day prior to assay set-up, cells were pelleted, resuspended in fresh media, counted, and cells were plated at 0.4×10^6 cell/mL in a T150 flask. On the day of the assay, cells were pelleted, resuspend in fresh media, counted, and seeded at 5,000 cells/well in white opaque 96-well tissue culture treated microplates (Perkin Elmer, catalog number 6005680). Cells were exposed to different concentrations of test compounds at 37° C., 5% CO2 for 72 hours immediately after seeding. Cell viability was acquired on a Perkin Elmer Envision 2104 multilabel reader using the CellTiter-Glo assay (Promega) according to the manufacturer's instructions.

human DHODH = human DHODH (Homo sapiens (Human), UniProt Q02127); experiment: DHODH Enzymatic Assay; format: biochemical; settings: purified human DHODH, DCIP absorbance, end-point mode
human DHODH, sequence (Q02127 whole entry): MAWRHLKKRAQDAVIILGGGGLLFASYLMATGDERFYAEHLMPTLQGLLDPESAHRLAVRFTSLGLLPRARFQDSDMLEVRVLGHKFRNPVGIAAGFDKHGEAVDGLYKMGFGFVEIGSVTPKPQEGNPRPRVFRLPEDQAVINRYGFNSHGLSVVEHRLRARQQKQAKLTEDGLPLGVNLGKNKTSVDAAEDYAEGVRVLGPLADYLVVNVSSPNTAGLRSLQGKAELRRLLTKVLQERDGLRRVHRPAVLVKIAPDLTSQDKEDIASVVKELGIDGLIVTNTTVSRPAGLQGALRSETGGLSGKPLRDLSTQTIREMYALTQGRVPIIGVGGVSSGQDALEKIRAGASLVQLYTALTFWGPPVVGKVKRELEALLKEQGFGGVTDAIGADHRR
Procedure: To detect DHODH enzyme activities, dichloroindophenol (DCIP) is added as the final electron acceptor in the assay. DCIP can accept electrons from the reduced coenzyme Q generated in the assay, or from dihydroorotate (DHO) via FMN by binding presumably to the ubiquinone pocket. […] The assay buffer contained […], pH 7.5, 150 mM NaCl, 0.5 mM EDTA, and 0.1% Triton X-100 in MilliQ water. Substrate consisting of 20 mM DHO, 5 mM CoQ6, and 1 mM DCIP in assay buffer, initiates the reaction. […] Absorbance measurements were obtained using the BMG Phera Star plate-reading spectrophotomer. Purified human DHODH was purchased from Proteros (cat. No. PR-0044). Chemicals were purchased from Sigma-Aldrich, Teknova, and Avanti Polar Lipids. Liquid handling was performed using Labcyte Echo and Formulatrix Tempest.

IC50 (MOLM-13 cells): 4 nM | IC50 (human DHODH): 7.06 nM
SMILES: CCn1c(CO)nn(-c2cc3c(cc2F)C(=O)C(C)(c2ccccc2C)CN3C(C)C)c1=O (racemic) [Example 19, Racemic 7-(4-Ethyl-3-(hydroxymethyl)-5-oxo-4,5-dihydro-1H-1,2,4-triazol-1-yl)-6-fluoro-1-isopropyl-3-methyl-3-(o-tolyl)-23-dihydroquinolin-4(1H)-one]
